Measurements reported in patent US20240400579A1, “SPIROCYCLIC MODULATORS OF CHOLESTEROL BIOSYNTHESIS AND THEIR USE FOR PROMOTING REMYELINATION” (GENENTECH, INC., priority 2021, published 2024).
Where two headings read alike, the source gives them in different places.

Columns and labels:
[1] = test system: zymostenol accumulation in EpiSC-derived OPCs (EBP); assay: GC/MS-based sterol profiling, zymostenol accumulation; type: cell-based, mouse; details: 8 doses from 0.15 nM to 333 nM, read-out: mZymo GCMS EC50
Protocol: (§1) To assess effects of treatments on OPCs, all treatments were assayed in two or more independent platings of epiblast stem cell-derived OPCs (EpiSC). EpiSC-derived OPCs were obtained using in vitro differentiation protocols and culture conditions described previously (Najm et al, 2011, Nature Methods). OPCs were expanded and frozen down in aliquots. OPCs were thawed into growth conditions for at least one passage before use in further assays.
Sterols were monitored using a modified Folch wash protocol (Hubler et al, 2018, Nature). EpiSC-derived OPCs were plated at 100,000 cells per well in PO— and laminin-coated 96-well plates in N2B27 media without growth factors. After 24 hours, cells were rinsed with saline and plates were frozen. Cholesterol-d7 standard was then added to each well before drying under nitrogen stream and derivatization with 55 μl of bis(trimethylsilyl) trifluoroacetamide. After derivatization, 2 μl were analyzed by gas chromatography/mass spectrometry using an Agilent 5973 Network Mass Selective Detector equipped with a 6890 gas chromatograph system and a HP-5MS capillary column (30 m x 0.25 mm×[…]). Samples were analyzed in full scan mode using electron impact ionization; ion fragment peaks were integrated to calculate sterol abundance, and quantitation was relative to cholesterol-d7. The following ion fragments were used to quantitate each metabolite: cholesterol-d7 (465), FF-Mas (482), cholesterol (368), zymostenol (458), zymosterol (456), Desmosterol (456, 343), 7-dehydrocholesterol (456, 325), lanosterol (393), lathosterol (458), 14-dehydrozymostenol (456, 351). […] All standards were obtained from Avanti Polar Lipids unless otherwise indicated. Calibration curves were generated by injecting varying concentrations of sterol standards and maintaining a fixed amount of cholesterol-D7. For normalized zymostenol accumulation results, the total amount of zymostenol measured after drug treatment was divided by the total amount of zymostenol accumulated after 24 hr treatment with 100 nM positive control reference.

[2] = molecular target: human emopamil binding protein and human 7-dehydrocholesterol reductase co-expressing cell membrane (Homo sapiens (Human), UniProt Q15125); assay: hEBP-DHCR7 radioligand filtration binding assay with [3H]-Compound 118A*; details: radioligand [3H]-Compound 118A*; HEK293 membrane co-expressing hEBP and DHCR7
Protocol: Membrane Preparation: human emopamil binding protein and human 7-dehydrocholesterol reductase co-expressing cells were generated by transient transfecting host human embryonic kidney (HEK) 293 cells with 2 DNA constructs containing each protein's coding sequence. Cells were suspension cultured at 37° C. with 5% CO2 in […] 293 Expression Medium (Thermofisher). Whole cell membrane was prepared by harvesting the cell pellet, adding cold membrane buffer (50 mM Tris, pH7.5, 1× Roche COMPLETE EDTA-free protease inhibitor cocktail) 10 times volume of the cell pellets weight, lysing cell pellet on ice by using Dounce homogenizer, spinning at 200 g 4° C. for 15 min, collecting supernatant and spinning again at 25000 g 4° C. for 50 min, transferring pellet to Dounce homogenizer, re-suspending pellet by homogenizing in membrane buffer on ice to reach ˜25 mg/mL, then keeping whole cell membrane aliquots at −80° C.
Compounds were prepared in a 96-well U bottom plate using an Echo550 machine and 10 mM compound DMSO stock solution, followed by an 8-dose 5-fold serial dilutions protocol with final testing compound concentration ranging from 0.06 to 5000 nM, with DMSO back fill to 100 nL/well and n=2. […] The UniFilter-96 GF/B plates were pre-treated by adding 50 μl/well of 0.3% (v/v) PEI to UniFilter-96 GF/B plates. The plates were sealed and incubated at 4° C. for 3 hrs. Then, the plates were washed with ice-cold assay buffer 3 times. The radioligand binding assay was prepared by adding assay buffer diluted hEBP-DHCR7 membrane at 66.7 μg/ml x 150 μl/well into the 96-well compound plate to reach 10 μg membrane per well. Then, the assay buffer diluted [3H]-Compound 118A* was added at 25 nM×50 μl/well. Following this, the plate was centrifuged at 1000 rpm for 30 secs. The plate was then sealed and agitated at 600 rpm at 22° C. for 5 min, and then incubated at 22° C. for 3 hrs. The incubation was stopped by transferring the binding solution to the pre-treated UniFilter-96 GF/B plate, vacuum filtrated, and then washed four times with ice-cold assay buffer. Following this, the plates were dried at 37° C. for 45 min. The plates were then sealed at the bottom. 40 μl/well of scintillation cocktail was added to the plates. A MicroBeta2 microplate counter was then used to read the plate and analyze the data. For reference and test compounds, the results are expressed as % Inhibition, using the normalization equation: N=100-100×(U−C2)/(C1−C2), where U is the unknown value, C1 is the average of high controls, and C2 is the average value of low controls. The IC50 was determined by fitting percentage of inhibition as a function of compound concentrations with Hill equation using XLfit. Results are expressed as hEBP-DHCR7 Ki (uM) in Table 4. Ki was calculated as described above.

EpiSC-derived OPCs = assay: In vitro phenotypic screening of OPCs, MBP high-content imaging; type: cell-based, mouse; details: percentage of MBP+ oligodendrocytes, 3 days, 0.5 nM to 1000 nM, read-out: mOPC EC50
Protocol: as §1
EpiSC-derived OPCs were grown and expanded in poly-L-ornithine (PO) and laminin-coated flasks in N2B27 media (DMEM/F12 (Gibco), N2-MAX (R&D Systems), B-27 (ThermoFisher), and GlutaMax (Gibco)) supplemented with FGF2 ([…], R&D systems, 233-FB-025) and PDGF-AA ([…], R&D systems, 233-AA-050) before harvesting for experiments. The cells were seeded onto poly-L-ornithine or poly-D-lysine coated CellCarrier Ultra plates (PerkinElmer) coated with laminin (Sigma, L2020) at a density of 150,000/cm^2 in N2B27 media without growth factors. For dose-response testing, a 1000× compound stock in dimethyl sulphoxide (DMSO) was added to assay plates, resulting in 8-point dose curves with final concentrations between 1000 nM and 0.5 nM. Positive controls and DMSO vehicle controls were included in each assay plate. Cells were incubated under standard conditions (37° C., 5% CO2) for 3 days and fixed with 4% paraformaldehyde (PFA) in phosphate buffered saline (PBS) for 20 min. Fixed plates were washed with PBS, permeabilized with 0.1% Triton X-100, and blocked with 10% donkey serum (v/v) in PBS for 40 min. Then, cells were labelled with MBP antibodies (Abcam, ab7349; 1:200) for 2 h at room temperature, washed with PBS, and stained with Alexa Fluor conjugated secondary antibodies (1:500) for 45 min. Nuclei were visualized by DAPI staining (Sigma; 1 μg/ml), followed by further PBS washes.
Cells and cell culture plates were imaged on the Operetta High Content Imaging and Analysis system (PerkinElmer). Analysis (PerkinElmer Harmony and Columbus software) began by identifying intact nuclei stained by DAPI. The peri-nuclear region of each cell was then cross-referenced with the mature myelin protein (MBP) stain to identify oligodendrocyte nuclei, and from this the percentage of oligodendrocytes was calculated. EC50 values were calculated using The Levenberg-Marquardt algorithm to fit a Hill equation to dose-response data (0.5 nM to 1000 nM).

Sequence of human emopamil binding protein and human 7-dehydrocholesterol reductase co-expressing cell membrane (Q15125 whole entry): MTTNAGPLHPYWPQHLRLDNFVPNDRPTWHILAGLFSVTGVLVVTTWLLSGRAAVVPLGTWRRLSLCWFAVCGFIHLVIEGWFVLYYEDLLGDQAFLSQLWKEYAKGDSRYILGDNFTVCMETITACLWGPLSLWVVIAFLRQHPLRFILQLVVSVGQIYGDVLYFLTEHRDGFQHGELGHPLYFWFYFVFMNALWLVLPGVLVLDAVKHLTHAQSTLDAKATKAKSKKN

| EC50 ([1]; 24 hours) [nM] | Ki [2] [nM] | EC50 (EpiSC-derived OPCs) [nM] | EC50 ([1]; Mus musculus, 24 h) [nM] | EC50 (EpiSC-derived OPCs; Mus musculus, 72 h) [nM] | SMILES |
| --- | --- | --- | --- | --- | --- |
|  | 24.3 |  | 12.2 | 23.5 | O=S1(=O)CC2(CCN(CCCc3ccc(F)c(F)c3)CC2)C1 [Compound 225, 7-(3-(3,4-Difluorophenyl)propyl)-2-thia-7-azaspiro[3.5]nonane 2,2-dioxide] |
|  | 10 |  | 2 | 2.9 | O=S1(=O)CC2(CCN(CCOc3ccc(F)c(F)c3)CC2)C1 [Example 158, 7-(2-(3,4-Difluorophenoxy)ethyl)-2-thia-7-azaspiro[3.5]nonane 2,2-dioxide] |
|  | 65.3 |  | 9.8 | 63 | C[C@H](CN1CCC2(CC1)CS(=O)(=O)C2)Oc1ccc(C(F)(F)F)nc1 (single isomer, unassigned) [Example 207B*] |
|  | 7.95 |  | 0.94 | 2.8 | O=S1(=O)CC2(CCN(CCOc3ccc(C(F)(F)F)c(F)c3)CC2)C1 [Compound 228, 7-(2-(3-Fluoro-4-(trifluoromethyl)phenoxy)ethyl)-2-thia-7-azaspiro[3.5]nonane 2,2-dioxide] |
|  | 9.29 |  | 0.88 | 2.2 | O=S1(=O)CC2(CCN(CCOc3ccc(C(F)(F)F)cc3)CC2)C1 [Compound 226, 7-(2-(4-(Trifluoromethyl)phenoxy)ethyl)-2-thia-7-azaspiro[3.5]nonane 2,2-dioxide] |
|  | 22.1 |  | 6.9 | 22.2 | O=S1(=O)CCC2(CC1)CN(CCOc1ccc(F)c(Cl)c1)C2 [Compound 219, 2-(2-(3-Chloro-4-fluorophenoxy)ethyl)-7-thia-2-azaspiro[3.5]nonane 7,7-dioxide] |
|  | 29.9 |  | 4.9 | 25 | CC(C)(Cc1ccc(C(F)(F)F)cn1)CN1CCC2(C1)CS(=O)(=O)C2 [Example 150, 6-(2,2-Dimethyl-3-(5-(trifluoromethyl)pyridin-2-yl)propyl)-2-thia-6-azaspiro[3.4]octane-2,2-dioxide] |
|  | 504 |  | 52 | 282 | O=S1(=O)CC2(CCN(CCOc3cncc(F)c3)CC2)C1 [Example 210, 7-(2-((5-Fluoropyridin-3-yl)oxy)ethyl)-2-thia-7-azaspiro[3.5]nonane 2,2-dioxide] |

Second part, the compound before the results:

| SMILES | EC50 ([1]; 24 hours) [nM] | Ki [2] [nM] | EC50 (EpiSC-derived OPCs) [nM] | EC50 ([1]; Mus musculus, 24 h) [nM] | EC50 (EpiSC-derived OPCs; Mus musculus, 72 h) [nM] |
| --- | --- | --- | --- | --- | --- |
| C[C@@H](Cc1ccc([C@H]2CC[C@](C)(O)CC2)c(Cl)c1)CN1CCC2(C1)CS(=O)(=O)C2 (mixture of isomers) [Compound 123B, 6-((S)-3-(3-Chloro-4-((1r,4S)-4-hydroxy-4-methylcyclohexyl)phenyl)-2-methylpropyl)-2-thia-6-azaspiro[3.4]octane 2,2-dioxide, and 6-((R)-3-(3-chloro-4-((1r,4R)-4-hydroxy-4-methylcyclohexyl)phenyl)-2-methylpropyl)-2-thia-6-azaspiro[3.4]octane 2,2-dioxide] | 2.4 | 11 | 35 |  |  |
| C[C@H](Cc1ccc([C@H]2CC[C@](O)(C(F)(F)F)CC2)c(Cl)c1)CN1CCC2(C1)CS(=O)(=O)C2 (stereo in doubt) [116B*, 6-((S)-3-(3-Chloro-4-((1s,4S)-4-hydroxy-4-(trifluoromethyl)cyclohexyl)phenyl)-2-methylpropyl)-2-thia-6-azaspiro[3.4]octane 2,2-dioxide, and 6-((R)-3-(3-chloro-4-((1r,4R)-4-hydroxy-4-(trifluoromethyl)cyclohexyl)phenyl)-2-methylpropyl)-2-thia-6-azaspiro[3.4]octane 2,2-dioxide] | 0.81 | 9.31 | 2 |  |  |
| C[C@H](Cc1ccc(C(F)(F)F)cc1)CN1CCC2(CC1)CS(=O)(=O)C2 (single isomer, unassigned) [216B*] |  | 15.6 |  | 0.99 | 3.3 |
| CC(Cc1ccc(F)c(F)c1)CN1CCC2(CC1)CS(=O)(=O)C2 (single isomer, unassigned) [212B*, 7-(3-(3,4-Difluorophenyl)-2-methylpropyl)-2-thia-7-azaspiro[3.5]nonane 2,2-dioxide] | 2.1 | 10.1 | 4 |  |  |
| O=S1(=O)CCC2(CC1)CN(CCOc1ccc(F)c(F)c1)C2 [Compound 214, 2-(2-(3,4-Difluorophenoxy)ethyl)-7-thia-2-azaspiro[3.5]nonane 7,7-dioxide] |  | 40.8 |  | 15 | 50.4 |
| CC(Cc1ccc(C2CC2)cc1)CN1CCC2(C1)CS(=O)(=O)C2 (racemic) [Compound 108, 6-(3-(4-Cyclopropylphenyl)-2-methylpropyl)-2-thia-6-azaspiro[3.4]octane 2,2-dioxide] |  | 9.72 |  | 5.5 | 7.5 |
| CC(C)(CN1CCC2(C1)CS(=O)(=O)C2)Oc1ccc(C(F)(F)F)cc1 [Compound 120, 6-(2-Methyl-2-(4-(trifluoromethyl)phenoxy)propyl)-2-thia-6-azaspiro[3.4]octane 2,2-dioxide] |  | 17.7 |  | 4 | 6.4 |
| CCC(C)(C)c1ccc(CC(C)CN2CCC3(CCS(=O)(=O)C3)C2)cc1 (stereo not drawn) [Compound 106] |  | 8.38 |  | 8.5 | 47 |
| C[C@H](CN1CCC2(CC1)CS(=O)(=O)C2)Oc1ccc(C(F)(F)F)cc1 (single isomer, unassigned) [227B*] |  | 9.8 |  | 2.1 | 2.4 |
